Measured values from ChEMBL document CHEMBL1201862, “PubChem BioAssay data set” (2004).
Values belong to the molecule of their own block, whether it stands above or below them. Activity calls are given as the source filed them.

What was measured:
[1] = molecular target: T1, Histone-lysine N-methyltransferase NSD2 (Homo sapiens, UniProt O96028); assay type: biochemical
T1 sequence (O96028 whole entry): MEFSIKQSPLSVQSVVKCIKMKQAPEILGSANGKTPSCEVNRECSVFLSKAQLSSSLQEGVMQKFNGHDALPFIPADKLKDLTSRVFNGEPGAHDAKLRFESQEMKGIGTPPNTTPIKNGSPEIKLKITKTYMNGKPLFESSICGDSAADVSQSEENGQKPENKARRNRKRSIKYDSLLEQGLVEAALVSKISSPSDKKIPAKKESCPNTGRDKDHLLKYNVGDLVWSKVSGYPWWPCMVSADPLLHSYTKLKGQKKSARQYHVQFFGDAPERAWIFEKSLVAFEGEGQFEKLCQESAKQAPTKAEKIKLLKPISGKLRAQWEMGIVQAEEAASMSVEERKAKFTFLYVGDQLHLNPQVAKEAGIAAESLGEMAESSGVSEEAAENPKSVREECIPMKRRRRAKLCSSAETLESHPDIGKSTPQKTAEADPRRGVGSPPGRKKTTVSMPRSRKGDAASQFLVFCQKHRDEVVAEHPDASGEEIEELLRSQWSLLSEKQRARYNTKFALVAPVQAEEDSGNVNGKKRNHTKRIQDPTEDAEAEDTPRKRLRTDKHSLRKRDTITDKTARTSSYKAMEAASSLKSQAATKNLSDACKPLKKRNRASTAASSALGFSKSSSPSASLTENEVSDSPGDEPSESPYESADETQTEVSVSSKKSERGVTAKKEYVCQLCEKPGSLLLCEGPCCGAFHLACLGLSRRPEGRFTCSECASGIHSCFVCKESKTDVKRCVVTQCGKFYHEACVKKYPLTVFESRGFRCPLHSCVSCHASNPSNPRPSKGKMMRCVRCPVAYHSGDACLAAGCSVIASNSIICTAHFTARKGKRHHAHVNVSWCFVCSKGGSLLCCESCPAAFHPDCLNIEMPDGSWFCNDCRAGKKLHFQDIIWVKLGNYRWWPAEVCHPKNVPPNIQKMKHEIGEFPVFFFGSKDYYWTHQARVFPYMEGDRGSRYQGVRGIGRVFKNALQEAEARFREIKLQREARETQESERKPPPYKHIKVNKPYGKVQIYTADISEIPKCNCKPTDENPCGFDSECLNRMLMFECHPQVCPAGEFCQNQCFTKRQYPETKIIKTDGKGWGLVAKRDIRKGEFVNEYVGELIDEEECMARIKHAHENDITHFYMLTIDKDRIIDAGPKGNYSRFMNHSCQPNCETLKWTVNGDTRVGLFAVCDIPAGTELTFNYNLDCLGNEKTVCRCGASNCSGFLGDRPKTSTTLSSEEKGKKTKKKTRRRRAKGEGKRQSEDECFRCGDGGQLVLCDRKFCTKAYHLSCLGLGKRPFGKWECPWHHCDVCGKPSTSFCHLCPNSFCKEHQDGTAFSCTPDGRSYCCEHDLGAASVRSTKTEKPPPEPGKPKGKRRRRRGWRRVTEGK

[2] = molecular target: T2, Zinc finger protein mex-5 (Caenorhabditis elegans, UniProt Q9XUB2); assay: MEX-5/TCR-2 RNA interaction inhibitors, dose response, biochemical, C. elegans, fluorescence polarization (AID 1960)
T2 sequence (Q9XUB2 whole entry): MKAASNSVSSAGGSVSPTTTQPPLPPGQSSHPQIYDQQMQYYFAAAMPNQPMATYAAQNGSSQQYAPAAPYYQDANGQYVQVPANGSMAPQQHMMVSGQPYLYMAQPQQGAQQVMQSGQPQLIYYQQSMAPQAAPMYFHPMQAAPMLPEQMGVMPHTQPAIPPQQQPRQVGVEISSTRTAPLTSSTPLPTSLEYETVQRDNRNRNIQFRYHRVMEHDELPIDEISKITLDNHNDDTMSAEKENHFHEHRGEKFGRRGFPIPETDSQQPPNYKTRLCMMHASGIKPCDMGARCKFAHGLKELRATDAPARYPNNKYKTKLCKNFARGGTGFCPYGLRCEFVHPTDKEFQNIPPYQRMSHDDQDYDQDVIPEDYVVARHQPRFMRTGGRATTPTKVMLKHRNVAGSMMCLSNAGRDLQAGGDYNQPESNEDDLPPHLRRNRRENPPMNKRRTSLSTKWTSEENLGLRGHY

[3] = molecular target: T3, RNA-binding protein pos-1 (Caenorhabditis elegans, UniProt G5EF15); assay: inhibitors of POS-1/mex-3 RNA binding, dose response, biochemical, fluorescence polarization (AID 1964);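 note: purified POS-1 fused to maltose binding protein made in E. coli; potency of compounds blocking POS-1 binding to fluorescent RNA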
T3 sequence (G5EF15 whole entry): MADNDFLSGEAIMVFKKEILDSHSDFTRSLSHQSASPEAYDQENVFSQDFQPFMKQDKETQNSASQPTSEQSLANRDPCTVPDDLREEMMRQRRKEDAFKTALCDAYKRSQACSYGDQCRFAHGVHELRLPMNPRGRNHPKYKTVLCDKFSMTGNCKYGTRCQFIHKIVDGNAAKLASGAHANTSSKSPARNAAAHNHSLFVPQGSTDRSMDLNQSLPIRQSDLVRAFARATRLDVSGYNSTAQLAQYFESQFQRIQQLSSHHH

[4] = molecular target: RNA-editing ligase 1, mitochondrial (Trypanosoma brucei brucei, UniProt P86926); assay: TbREL1 ligase inhibitors, dose response, biochemical, fluorescence, Trypanosoma brucei (AID 1117295); assay type: functional
RNA-editing ligase 1, mitochondrial, sequence (P86926 whole entry): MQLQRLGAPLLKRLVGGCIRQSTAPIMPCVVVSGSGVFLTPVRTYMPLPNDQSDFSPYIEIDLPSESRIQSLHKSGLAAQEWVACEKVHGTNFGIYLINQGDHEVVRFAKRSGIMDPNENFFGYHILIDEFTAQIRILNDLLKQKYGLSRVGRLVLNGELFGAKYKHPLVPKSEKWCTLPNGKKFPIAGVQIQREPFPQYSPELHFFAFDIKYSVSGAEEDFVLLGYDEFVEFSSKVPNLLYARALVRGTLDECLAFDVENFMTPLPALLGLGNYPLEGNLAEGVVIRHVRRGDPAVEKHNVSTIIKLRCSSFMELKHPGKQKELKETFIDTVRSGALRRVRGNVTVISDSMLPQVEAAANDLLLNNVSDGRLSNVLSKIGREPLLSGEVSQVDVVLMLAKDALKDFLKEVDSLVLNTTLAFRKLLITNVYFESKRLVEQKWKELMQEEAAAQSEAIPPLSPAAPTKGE

[5] = molecular target: T4, Mannose-6-phosphate isomerase (Homo sapiens, UniProt P34949); assay: human PMI inhibitors, high substrate, primary screen, biochemical, fluorescence intensity, high mannose 6-phosphate (AID 1220)
T4 sequence (P34949 whole entry): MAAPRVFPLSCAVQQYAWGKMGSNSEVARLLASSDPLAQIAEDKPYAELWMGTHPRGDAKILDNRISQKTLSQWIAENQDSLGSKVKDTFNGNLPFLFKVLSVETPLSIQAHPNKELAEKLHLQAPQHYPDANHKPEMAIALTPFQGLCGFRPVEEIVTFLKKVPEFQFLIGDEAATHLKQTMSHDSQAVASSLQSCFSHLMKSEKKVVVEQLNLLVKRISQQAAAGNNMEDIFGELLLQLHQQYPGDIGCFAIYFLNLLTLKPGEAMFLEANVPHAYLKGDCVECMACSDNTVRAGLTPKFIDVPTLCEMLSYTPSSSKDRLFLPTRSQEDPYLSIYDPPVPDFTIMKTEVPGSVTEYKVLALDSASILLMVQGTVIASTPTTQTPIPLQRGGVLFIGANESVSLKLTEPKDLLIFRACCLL

[6] = molecular target: Genome polyprotein (dengue virus type 2, UniProt P29990); assay: Dengue-2 NS5 methyltransferase inhibitors, primary screen, biochemical, confirmation dose response (AID 588689); assay type: functional
Genome polyprotein, sequence (P29990 2492-3391 limits assumed): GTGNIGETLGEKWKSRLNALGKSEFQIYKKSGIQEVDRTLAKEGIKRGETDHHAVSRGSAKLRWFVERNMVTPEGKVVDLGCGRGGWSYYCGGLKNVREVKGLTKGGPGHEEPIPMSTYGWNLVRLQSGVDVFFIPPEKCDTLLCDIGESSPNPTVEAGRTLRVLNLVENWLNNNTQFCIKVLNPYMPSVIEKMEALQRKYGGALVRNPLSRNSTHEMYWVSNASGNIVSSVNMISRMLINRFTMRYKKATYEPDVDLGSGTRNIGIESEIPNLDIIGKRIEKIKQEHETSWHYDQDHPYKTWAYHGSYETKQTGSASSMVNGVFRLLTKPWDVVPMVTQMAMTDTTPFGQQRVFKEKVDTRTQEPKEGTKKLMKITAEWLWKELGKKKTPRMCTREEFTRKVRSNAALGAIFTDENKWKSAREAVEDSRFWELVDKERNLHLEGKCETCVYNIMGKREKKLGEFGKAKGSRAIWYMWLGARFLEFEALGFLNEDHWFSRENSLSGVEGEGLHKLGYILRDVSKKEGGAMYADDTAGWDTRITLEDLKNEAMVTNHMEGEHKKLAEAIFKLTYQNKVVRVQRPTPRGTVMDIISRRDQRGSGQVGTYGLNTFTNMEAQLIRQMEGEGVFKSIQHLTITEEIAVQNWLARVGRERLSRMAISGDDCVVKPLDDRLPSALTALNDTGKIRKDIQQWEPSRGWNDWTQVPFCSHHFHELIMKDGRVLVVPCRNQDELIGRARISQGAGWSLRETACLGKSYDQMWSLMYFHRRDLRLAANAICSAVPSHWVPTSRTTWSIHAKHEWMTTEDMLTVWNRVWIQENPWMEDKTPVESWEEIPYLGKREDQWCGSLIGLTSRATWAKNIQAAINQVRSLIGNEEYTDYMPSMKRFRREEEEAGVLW

[7] = molecular target: T5, Calpain-2 catalytic subunit (Sus scrofa, UniProt P43367); assay: pig calpain II inhibitor potency, dose response, biochemical, fluorogenic peptide substrate (AID 1420); assay type: functional
T5 sequence (P43367 whole entry): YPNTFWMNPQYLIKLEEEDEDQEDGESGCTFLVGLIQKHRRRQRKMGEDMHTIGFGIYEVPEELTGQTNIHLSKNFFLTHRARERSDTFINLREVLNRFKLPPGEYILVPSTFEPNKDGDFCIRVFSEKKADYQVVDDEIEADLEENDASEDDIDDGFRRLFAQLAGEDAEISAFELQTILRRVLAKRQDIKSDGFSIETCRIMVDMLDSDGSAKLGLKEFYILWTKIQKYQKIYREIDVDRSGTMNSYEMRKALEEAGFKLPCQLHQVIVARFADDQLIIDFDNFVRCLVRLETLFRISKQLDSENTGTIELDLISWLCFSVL

[8] = Glucagon-like peptide 1 release potency, NCI-H716 cell line, dose-response, half-maximal inhibitory concentration (AID 1117344); assay type: functional, cell-based
[9] = half-maximal inhibitory concentration for glucagon-like peptide-1 release, STC-1 cell line, dose-response (AID 1117345); assay type: functional, cell-based
[10] = P. falciparum ATP4 D1247Y mutant growth inhibitors, dose response, NITD609-resistant line, SYBR Green, dry powder (AID 1159571); assay type: functional, cell-based;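 note: parasites synchronized at ring stage by sorbitol before testing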
[11] = P. falciparum 3D7-ScDHODH growth inhibitors, dose response, SYBR Green, dry powder samples (AID 1159570); assay type: functional, cell-based;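 note: parasite growth measured after 72 hours of compound exposure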
[12] = P. falciparum Dd2 growth inhibitors, dose response, SYBR Green, dry powder samples (AID 1159566); assay type: functional, cell-based;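 note: potency for growth inhibition with lower SYBR green DNA signal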
[13] = P. falciparum Dd2 growth inhibitors, dose response, SYBR Green, cherry-picked samples (AID 1159567); assay type: functional, cell-based
[14] = molecular target: Transthyretin (Homo sapiens, UniProt P02766); assay: Luminescence-based cell-based high throughput dose response assay to identify activators of Transthyretin (TTR) transcription.; assay type: functional
[15] = molecular target: Glutathione-S-transferase (Schistosoma japonicum, UniProt Q26513); assay: biotin-GST/anti-GST TR-FRET signal inhibitors, dose response, artefact control for Vif-APOBEC3G degradation inhibitor project, biochemical (AID 1117362); assay type: functional
Glutathione-S-transferase, sequence (Q26513 whole entry): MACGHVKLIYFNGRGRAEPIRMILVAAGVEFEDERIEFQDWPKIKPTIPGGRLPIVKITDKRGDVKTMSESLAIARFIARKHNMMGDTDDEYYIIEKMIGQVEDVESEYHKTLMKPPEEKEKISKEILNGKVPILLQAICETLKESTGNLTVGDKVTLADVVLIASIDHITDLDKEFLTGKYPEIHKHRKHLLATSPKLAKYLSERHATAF

[16] = molecular target: Large T antigen (Simian virus 40, UniProt P03070); assay type: functional, Betapolyomavirus macacae;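 note: Confirmatory-stage PubChem screen for compounds that inhibit SV40 T antigen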
Large T antigen, sequence (P03070 whole entry): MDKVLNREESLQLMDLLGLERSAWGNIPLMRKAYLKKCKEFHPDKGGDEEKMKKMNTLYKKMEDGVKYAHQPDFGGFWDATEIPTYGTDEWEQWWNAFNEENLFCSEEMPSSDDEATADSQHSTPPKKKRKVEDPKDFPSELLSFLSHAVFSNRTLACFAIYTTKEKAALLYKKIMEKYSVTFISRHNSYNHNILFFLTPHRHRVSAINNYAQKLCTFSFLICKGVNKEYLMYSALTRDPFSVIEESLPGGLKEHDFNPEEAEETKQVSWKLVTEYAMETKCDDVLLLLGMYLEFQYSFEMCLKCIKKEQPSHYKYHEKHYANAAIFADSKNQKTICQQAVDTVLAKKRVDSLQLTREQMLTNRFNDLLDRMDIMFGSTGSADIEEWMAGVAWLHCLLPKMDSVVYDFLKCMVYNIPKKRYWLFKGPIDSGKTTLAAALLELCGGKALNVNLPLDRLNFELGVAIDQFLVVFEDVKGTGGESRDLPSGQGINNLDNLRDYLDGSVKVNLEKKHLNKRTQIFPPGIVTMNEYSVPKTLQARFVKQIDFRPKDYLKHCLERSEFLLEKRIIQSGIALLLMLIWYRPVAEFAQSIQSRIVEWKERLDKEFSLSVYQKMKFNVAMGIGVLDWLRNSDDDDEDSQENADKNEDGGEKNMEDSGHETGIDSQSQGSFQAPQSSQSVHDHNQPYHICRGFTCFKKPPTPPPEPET

- AC50 [1]: 17.3 µM (active)
- EC50 [2]: 0.868 µM (active)
- EC50 [3]: 35.5 µM (active)
- IC50 [4]: > 96.6 µM (inactive)
- IC50 [5]: 19.4 µM (active)
- IC50 [6]: 33.6 µM (active)
- IC50 [7]: > 50 µM (not active)
Structure (SMILES): CCOC(=O)c1ccc(CC(=O)c2ccc(O)c(O)c2O)o1

Structure (SMILES): CC(C)(C)CC(C)(C)c1ccc(O)cc1
- IC50 [8]: 25.9 µM (inactive)
- IC50 [9]: 8.37 µM (inactive)

Structure (SMILES): COc1cccc(C#Cc2cnc3c(c2)C(=O)N([C@@H](C)CO)C[C@H](C)[C@@H](CN(C)C(=O)C2CCCCC2)O3)c1
- AC50 [10]: 0.972 µM (active)
- AC50 [11]: 0.783 µM (active)
- AC50 [12]: 0.635 µM (active)
- AC50 [13]: 0.889 µM (active)

- EC50 [14]: > 167 µM (inactive)
Structure (SMILES): C/C(=N\Nc1ncc(Br)cn1)c1cccc([N+](=O)[O-])c1

- IC50 [15]: > 100 µM (active)
- IC50 [5]: > 50 µM (not active)
- IC50 [16]: 58.4 µM (active)
Structure (SMILES): CN(C(=S)Nc1cccnc1)c1ccc(O)cc1
